Each compound was assayed against human activated kallikrein enzyme (Homo sapiens (Human), UniProt P03952) (assay: Plasma kallikrein inhibition assay with fluorogenic peptide substrate, 500 pM activated kallikrein format). Details: 500 pM activated kallikrein; 300 uM Pro-Phe-Arg-7-amido-4-methylcoumarin substrate; 30 min preincubation, 10 min reaction at RT; read-out: Primary Dose Response Assay: Average EC50.
Sequence of human activated kallikrein enzyme (P03952 391-638): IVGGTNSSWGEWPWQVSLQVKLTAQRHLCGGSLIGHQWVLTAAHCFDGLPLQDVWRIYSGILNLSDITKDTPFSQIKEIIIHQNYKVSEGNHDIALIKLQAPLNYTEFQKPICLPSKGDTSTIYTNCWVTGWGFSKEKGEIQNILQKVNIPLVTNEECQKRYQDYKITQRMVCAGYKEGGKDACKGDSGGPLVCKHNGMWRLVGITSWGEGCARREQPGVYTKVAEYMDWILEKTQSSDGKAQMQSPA
Sequence of human activated kallikrein enzyme (P03952 20-390 partner): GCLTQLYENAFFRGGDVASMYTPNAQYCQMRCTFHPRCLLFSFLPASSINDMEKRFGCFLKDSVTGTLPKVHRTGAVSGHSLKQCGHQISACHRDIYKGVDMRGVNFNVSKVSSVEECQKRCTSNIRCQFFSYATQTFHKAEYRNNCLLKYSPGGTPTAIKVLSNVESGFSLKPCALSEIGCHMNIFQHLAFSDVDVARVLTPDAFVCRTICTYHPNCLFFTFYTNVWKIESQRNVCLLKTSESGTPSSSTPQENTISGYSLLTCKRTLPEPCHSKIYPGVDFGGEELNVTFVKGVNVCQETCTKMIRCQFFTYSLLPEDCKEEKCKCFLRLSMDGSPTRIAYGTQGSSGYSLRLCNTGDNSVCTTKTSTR
Type: biochemical
Method: Example compounds were evaluated for inhibition of the human activated kallikrein enzyme in two formats of an assay employing a fluorogenic peptide substrate. In one assay format, the concentrations of reagents were as follows: 20 mM Tris pH 7.5, 1 mM EDTA, 150 mM sodium chloride, 0.1% PEG-400, 0.1% Triton X-100, […], 300 uM Pro-Phe-Arg-7-amido-4-methylcoumarin substrate. Prior to reaction initiation with substrate, enzyme and inhibitors were preincubated for 30 min at RT. After initiation with substrate, reactions were incubated for 10 min at RT and fluorescence emission at 460 nm from 380 nm excitation measured with a microplate reader. In another assay format, the concentrations of reagents were as follows: 20 mM Tris pH 7.5, 1 mM EDTA, 150 mM sodium chloride, 0.1% PEG-400, 0.1% Triton X-100, 5 pM activated kallikrein enzyme, 300 uM Pro-Phe-Arg-7-amido-4-methylcoumarin substrate. Prior to reaction initiation with substrate, enzyme and inhibitors were preincubated for 30 min at RT. After initiation with substrate, reactions were incubated for 18 h at RT and fluorescence emission at 460 nm from 380 nm excitation measured with a microplate reader.
Table II provides the results of the assay in the format with 500 pM activated kallikrein assay.
Table III provides comparative plasma kallikrein inhibition potency in the assay format with 500 pM activated kallikrein assay (described in detail in the preceding example).
`O=C(NCc1cn(Cc2cn3cc(C4CC4)ccc3n2)nn1)c1ncc2c(F)c(Cl)ccn12` [Example I-56, 7-chloro-N-((1-((6-cyclopropylimidazo[1,2-a]pyridin-2-yl)methyl)-1H-1,2,3-triazol-4-yl)methyl)-8-fluoroimidazo[1,5-a]pyridine-3-carboxamide] was tested, and the EC50 was greater than 7100 nM.
`COc1ccc(S(=O)(=O)N(C)C)c(CNC(=O)c2cn(Cc3cn4cc(C5CC5)ccc4n3)nn2)c1F` [Example I-57, 1-((6-cyclopropylimidazo[1,2-a]pyridin-2-yl)methyl)-N-(6-(N,N-dimethylsulfamoyl)-2-fluoro-3-methoxybenzyl)-1H-1,2,3-triazole-4-carboxamide] showed an EC50 of 1 to 10 nM.
Compound `COc1ccc([S+](C)[O-])c(CNC(=O)c2cn(Cc3cn4cc(C5CC5)ccc4n3)nn2)c1F` (stereo not drawn) [Example I-58, 1-((6-cyclopropylimidazo[1,2-a]pyridin-2-yl)methyl)-N-(2-fluoro-3-methoxy-6-(methylsulfinyl)benzyl)-1H-1,2,3-triazole-4-carboxamide] has an EC50 of 2000 to 7100 nM.
`COc1ccc(-n2cnnn2)c(CNC(=O)c2cncn2Cc2cn3cc(C4CC4)ccc3n2)c1F` [Example I-59, 1-((6-cyclopropylimidazo[1,2-a]pyridin-2-yl)methyl)-N-(2-fluoro-3-methoxy-6-(1H-tetrazol-1-yl)benzyl)-1H-imidazole-5-carboxamide] was tested, and the EC50 was greater than 7100 nM.
`O=C(NCc1ccccc1)c1cn(Cc2cn3cc(C4CC4)ccc3n2)nn1` [Example I-60, N-benzyl-1-((6-cyclopropylimidazo[1,2-a]pyridin-2-yl)methyl)-1H-1,2,3-triazole-4-carboxamide] was tested, and the EC50 was greater than 7100 nM.
For `COc1ccc(-n2cncn2)c(CNC(=O)c2cn(Cc3cn4cc(C5CC5)ccc4n3)nn2)c1F` [Example I-61, 1-((6-cyclopropylimidazo[1,2-a]pyridin-2-yl)methyl)-N-(2-fluoro-3-methoxy-6-(1H-1,2,4-triazol-1-yl)benzyl)-1H-1,2,3-triazole-4-carboxamide], the EC50 was no more than 1 nM.
With `COc1ccc(-n2ccc(C(F)(F)F)n2)c(CNC(=O)c2cn(Cc3cn4cc(C5CC5)ccc4n3)nn2)c1F` [Example I-62, 1-((6-cyclopropylimidazo[1,2-a]pyridin-2-yl)methyl)-N-(2-fluoro-3-methoxy-6-(3-(trifluoromethyl)-1H-pyrazol-1-yl)benzyl)-1H-1,2,3-triazole-4-carboxamide] the EC50 was 1 to 10 nM.
`COc1ccc(-c2cc3ccccn3n2)c(CNC(=O)c2cn(Cc3cn4cc(C5CC5)ccc4n3)nn2)c1F` [Example I-63, 1-((6-cyclopropylimidazo[1,2-a]pyridin-2-yl)methyl)-N-(2-fluoro-3-methoxy-6-(pyrazolo[1,5-a]pyridin-2-yl)benzyl)-1H-1,2,3-triazole-4-carboxamide] gave an EC50 of 100 to 2000 nM.
`COc1ccc(F)c(CNC(=O)c2cn(Cc3cn4cc(C5CC5)ccc4n3)nn2)c1F` [Example I-64, 1-((6-cyclopropylimidazo[1,2-a]pyridin-2-yl)methyl)-N-(2,6-difluoro-3-methoxybenzyl)-1H-1,2,3-triazole-4-carboxamide] gave an EC50 of 10 to 100 nM.
`O=C(NCc1ccc2[nH]cc(Cl)c2c1)c1cn(Cc2cn3cc(C4CC4)ccc3n2)nn1` [Example I-65, N-((3-chloro-1H-indol-5-yl)methyl)-1-((6-cyclopropylimidazo[1,2-a]pyridin-2-yl)methyl)-1H-1,2,3-triazole-4-carboxamide] was tested, and the EC50 was 10 to 100 nM.
`COc1ccc(-n2cnnn2)c(CN(C)C(=O)c2cn(Cc3cn4cc(C5CC5)ccc4n3)nn2)c1F` [Example I-66, 1-((6-cyclopropylimidazo[1,2-a]pyridin-2-yl)methyl)-N-(2-fluoro-3-methoxy-6-(1H-tetrazol-1-yl)benzyl)-N-methyl-1H-1,2,3-triazole-4-carboxamide] gave an EC50 of 100 to 2000 nM.
Work on `COc1ccc(-c2cn[nH]c2)c(CNC(=O)c2cn(Cc3cn4cc(C5CC5)ccc4n3)nn2)c1F` [Example I-67, 1-((6-cyclopropylimidazo[1,2-a]pyridin-2-yl)methyl)-N-(2-fluoro-3-methoxy-6-(1H-pyrazol-4-yl)benzyl)-1H-1,2,3-triazole-4-carboxamide] yielded an EC50 of 1 to 10 nM.
`COc1ccc(-n2cnnn2)c(CNC(=O)c2cn(Cc3cn4cc(C5CC5)cc(CC5COC5)c4n3)nn2)c1F` [Example I-68, 1-((6-cyclopropyl-8-(oxetan-3-ylmethyl)imidazo[1,2-a]pyridin-2-yl)methyl)-N-(2-fluoro-3-methoxy-6-(1H-tetrazol-1-yl)benzyl)-1H-1,2,3-triazole-4-carboxamide] was tested, and the EC50 was no more than 1 nM.
In the case of `COc1ccc(-n2cnnn2)c(CNC(=O)c2nnn(Cc3cn4cc(C5CC5)cc(F)c4n3)n2)c1F` [Example I-69, 2-((6-cyclopropyl-8-fluoroimidazo[1,2-a]pyridin-2-yl)methyl)-N-(2-fluoro-3-methoxy-6-(1H-tetrazol-1-yl)benzyl)-2H-tetrazole-5-carboxamide], the EC50 is reported as no more than 1 nM.
Work on `COc1ccc(-c2cn3ccccc3n2)c(CNC(=O)c2cn(Cc3cn4cc(C5CC5)ccc4n3)nn2)c1F` [Example I-70, 1-((6-cyclopropylimidazo[1,2-a]pyridin-2-yl)methyl)-N-(2-fluoro-6-(imidazo[1,2-a]pyridin-2-yl)-3-methoxybenzyl)-1H-1,2,3-triazole-4-carboxamide] yielded an EC50 of 10 to 100 nM.
`COc1ccc(-n2cnnn2)c(CNC(=O)c2cn(Cc3cn4cc(C5CC5)cc(-n5cnnc5)c4n3)nn2)c1F` [Example I-71, 1-((6-cyclopropyl-8-(4H-1,2,4-triazol-4-yl)imidazo[1,2-a]pyridin-2-yl)methyl)-N-(2-fluoro-3-methoxy-6-(1H-tetrazol-1-yl)benzyl)-1H-1,2,3-triazole-4-carboxamide] gave an EC50 of no more than 1 nM.
Work on `COc1ncc(C#N)c(CNC(=O)c2cn(Cc3cn4cc(C5CC5)ccc4n3)nn2)c1F` [Example I-72, N-((5-cyano-3-fluoro-2-methoxypyridin-4-yl)methyl)-1-((6-cyclopropylimidazo[1,2-a]pyridin-2-yl)methyl)-1H-1,2,3-triazole-4-carboxamide] yielded an EC50 of 100 to 2000 nM.
For `COc1ccc(-n2cc(C)c(C)n2)c(CNC(=O)c2cn(Cc3cn4cc(C5CC5)ccc4n3)nn2)c1F` [Example I-73, 1-((6-cyclopropylimidazo[1,2-a]pyridin-2-yl)methyl)-N-(6-(3,4-dimethyl-1H-pyrazol-1-yl)-2-fluoro-3-methoxybenzyl)-1H-1,2,3-triazole-4-carboxamide], the EC50 was 10 to 100 nM.
In the case of `COc1ccc(-c2cnc(C(=O)O)nc2)c(CNC(=O)c2cn(Cc3cn4cc(C5CC5)ccc4n3)nn2)c1F` [Example I-74, 5-(2-((1-((6-cyclopropylimidazo[1,2-a]pyridin-2-yl)methyl)-1H-1,2,3-triazole-4-carboxamido)methyl)-3-fluoro-4-methoxyphenyl)pyrimidine-2-carboxylic Acid], the EC50 is reported as 1 to 10 nM.
`COC(=O)c1ncc(-c2ccc(OC)c(F)c2CNC(=O)c2cn(Cc3cn4cc(C5CC5)ccc4n3)nn2)cn1` [Example I-75, Methyl 5-(2-((1-((6-cyclopropylimidazo[1,2-a]pyridin-2-yl)methyl)-1H-1,2,3-triazole-4-carboxamido)methyl)-3-fluoro-4-methoxyphenyl)pyrimidine-2-carboxylate] gave an EC50 of 1 to 10 nM.
In the case of `COc1ccc(-n2ccnn2)c(CNC(=O)c2cn(Cc3cn4cc(C5CC5)ccc4n3)nn2)c1F` [Example I-76, 1-((6-cyclopropylimidazo[1,2-a]pyridin-2-yl)methyl)-N-(2-fluoro-3-methoxy-6-(1H-1,2,3-triazol-1-yl)benzyl)-1H-1,2,3-triazole-4-carboxamide], the EC50 is reported as no more than 1 nM.

— patent US11787796B2, “Plasma Kallikrein inhibitors and uses thereof” (Takeda Pharmaceutical Company Limited, priority 2019, dated 2023)
